Data: ChEMBL document CHEMBL5303573, “Mapping human microbiome drug metabolism by gut bacteria and their genes” (Nature, 2019)

Assays:
[1] = The drug is tested on Bifidobacterium breve strain: DSM20213 for biotransformation. The drug concentrations were measured before and after a 12-h incubation by liquid-chromatography-coupled mass spectrometry (LC–MS); settings: 2 µM
[2] = The drug is tested on Clostridium scindens strain: ATCC35704 for biotransformation. The drug concentrations were measured before and after a 12-h incubation by liquid-chromatography-coupled mass spectrometry (LC–MS); settings: 2 µM
[3] = bacteroides thetaiotaomicron, 12 h, 2 µM
Description: The drug is tested on Bacteroides thetaiotaomicron strain: 7330 for biotransformation. The drug concentrations were measured before and after a 12-h incubation by liquid-chromatography-coupled mass spectrometry (LC–MS)

[4] = The drug is tested on Alistipes indistinctus strain: DSM22520 for biotransformation. The drug concentrations were measured before and after a 12-h incubation by liquid-chromatography-coupled mass spectrometry (LC–MS); settings: 2 µM
[5] = The drug is tested on Edwardsiella tarda strain: ATCC23685 for biotransformation. The drug concentrations were measured before and after a 12-h incubation by liquid-chromatography-coupled mass spectrometry (LC–MS); settings: 2 µM
[6] = The drug is tested on Bacteroides fragilis strain: HMW610 for biotransformation. The drug concentrations were measured before and after a 12-h incubation by liquid-chromatography-coupled mass spectrometry (LC–MS); settings: 2 µM
[7] = The drug is tested on Enterobacter cancerogenus strain: ATCC35316 for biotransformation. The drug concentrations were measured before and after a 12-h incubation by liquid-chromatography-coupled mass spectrometry (LC–MS); settings: 2 µM
[8] = The drug is tested on Collinsella aerofaciens strain: ATCC25986 for biotransformation. The drug concentrations were measured before and after a 12-h incubation by liquid-chromatography-coupled mass spectrometry (LC–MS); settings: 2 µM
[9] = The drug is tested on Clostridium sporogenes strain: ATCC15579 for biotransformation. The drug concentrations were measured before and after a 12-h incubation by liquid-chromatography-coupled mass spectrometry (LC–MS); settings: 2 µM
[10] = The drug is tested on Anaerotruncus colihominis strain: DSM17241 for biotransformation. The drug concentrations were measured before and after a 12-h incubation by liquid-chromatography-coupled mass spectrometry (LC–MS); settings: 2 µM
[11] = roseburia intestinalis, 12 h, 2 µM
Description: The drug is tested on Roseburia intestinalis strain: L1-82 for biotransformation. The drug concentrations were measured before and after a 12-h incubation by liquid-chromatography-coupled mass spectrometry (LC–MS)

[12] = bacteroides thetaiotaomicron, 12 h, 2 µM; remark: listed apart in the source
Description: The drug is tested on Bacteroides thetaiotaomicron strain: VPI-5482 for biotransformation. The drug concentrations were measured before and after a 12-h incubation by liquid-chromatography-coupled mass spectrometry (LC–MS)

[13] = bacteroides fragilis, 12 h, 2 µM
Description: The drug is tested on Bacteroides fragilis strain: NCTC 9343 for biotransformation. The drug concentrations were measured before and after a 12-h incubation by liquid-chromatography-coupled mass spectrometry (LC–MS)

[14] = The drug is tested on Bacteroides cellulosilyticus strain: DSM14838 for biotransformation. The drug concentrations were measured before and after a 12-h incubation by liquid-chromatography-coupled mass spectrometry (LC–MS); settings: 2 µM
[15] = limosilactobacillus reuteri cf48-3a, 12 h, 2 µM
Description: The drug is tested on Lactobacillus reuteri CF48-3A strain: BEI HM-102 for biotransformation. The drug concentrations were measured before and after a 12-h incubation by liquid-chromatography-coupled mass spectrometry (LC–MS)

[16] = The drug is tested on Enterococcus faecalis strain: V583 for biotransformation. The drug concentrations were measured before and after a 12-h incubation by liquid-chromatography-coupled mass spectrometry (LC–MS); settings: 2 µM
[17] = anaerostipes sp., 12 h, 2 µM
Description: The drug is tested on Anaerostipes sp. strain: fecal isolate for biotransformation. The drug concentrations were measured before and after a 12-h incubation by liquid-chromatography-coupled mass spectrometry (LC–MS)

[18] = bacteroides fragilis, 12 h, 2 µM; remark: listed apart in the source
Description: The drug is tested on Bacteroides fragilis strain: 3397 (T10) for biotransformation. The drug concentrations were measured before and after a 12-h incubation by liquid-chromatography-coupled mass spectrometry (LC–MS)

[19] = segatella copri, 12 h, 2 µM
Description: The drug is tested on Prevotella copri strain: DSM18205 for biotransformation. The drug concentrations were measured before and after a 12-h incubation by liquid-chromatography-coupled mass spectrometry (LC–MS)

[20] = bifidobacterium adolescentis, 12 h, 2 µM
Description: The drug is tested on Bifidobacterium adolescentis strain: ATCC 15703 for biotransformation. The drug concentrations were measured before and after a 12-h incubation by liquid-chromatography-coupled mass spectrometry (LC–MS)

CN1CCN(C(=O)O[C@H]2c3nccnc3C(=O)N2c2ccc(Cl)cn2)CC1 [ESZOPICLONE]
Bacterial Biotransformation [1]: Compound NOT metabolized | Bacterial Biotransformation [2]: Compound NOT metabolized | Bacterial Biotransformation [3]: Compound NOT metabolized | Bacterial Biotransformation [4]: Compound NOT metabolized | Bacterial Biotransformation [5]: Compound NOT metabolized | Bacterial Biotransformation [6]: Compound NOT metabolized | Bacterial Biotransformation [7]: Compound NOT metabolized | Bacterial Biotransformation [8]: Compound metabolized | Bacterial Biotransformation [9]: Compound NOT metabolized | Bacterial Biotransformation [10]: Compound metabolized | Bacterial Biotransformation [11]: Compound NOT metabolized | Bacterial Biotransformation [12]: Compound NOT metabolized | Bacterial Biotransformation [13]: Compound NOT metabolized | Bacterial Biotransformation [14]: Compound metabolized | Bacterial Biotransformation [15]: Compound NOT metabolized | Bacterial Biotransformation [16]: Compound NOT metabolized | Bacterial Biotransformation [17]: Compound NOT metabolized

O=C1[C@H](CC[C@H](O)c2ccc(F)cc2)[C@@H](c2ccc(O)cc2)N1c1ccc(F)cc1 [EZETIMIBE]
Bacterial Biotransformation [1]: Compound NOT metabolized | Bacterial Biotransformation [2]: Compound NOT metabolized | Bacterial Biotransformation [3]: Compound NOT metabolized | Bacterial Biotransformation [4]: Compound NOT metabolized | Bacterial Biotransformation [5]: Compound NOT metabolized | Bacterial Biotransformation [6]: Compound NOT metabolized | Bacterial Biotransformation [7]: Compound NOT metabolized | Bacterial Biotransformation [8]: Compound NOT metabolized | Bacterial Biotransformation [18]: Compound NOT metabolized | Bacterial Biotransformation [9]: Compound metabolized | Bacterial Biotransformation [10]: Compound NOT metabolized | Bacterial Biotransformation [11]: Compound NOT metabolized | Bacterial Biotransformation [12]: Compound NOT metabolized | Bacterial Biotransformation [13]: Compound NOT metabolized | Bacterial Biotransformation [14]: Compound NOT metabolized | Bacterial Biotransformation [15]: Compound NOT metabolized | Bacterial Biotransformation [16]: Compound NOT metabolized | Bacterial Biotransformation [17]: Compound NOT metabolized | Bacterial Biotransformation [19]: Compound NOT metabolized

O=c1[nH]c2ccccc2n1CCCN1CCC(n2c(=O)[nH]c3cc(Cl)ccc32)CC1 [DOMPERIDONE]
Bacterial Biotransformation [1]: Compound NOT metabolized | Bacterial Biotransformation [3]: Compound NOT metabolized | Bacterial Biotransformation [4]: Compound NOT metabolized | Bacterial Biotransformation [5]: Compound NOT metabolized | Bacterial Biotransformation [6]: Compound NOT metabolized | Bacterial Biotransformation [7]: Compound NOT metabolized | Bacterial Biotransformation [20]: Compound NOT metabolized | Bacterial Biotransformation [8]: Compound NOT metabolized | Bacterial Biotransformation [18]: Compound NOT metabolized | Bacterial Biotransformation [9]: Compound NOT metabolized | Bacterial Biotransformation [10]: Compound NOT metabolized | Bacterial Biotransformation [11]: Compound NOT metabolized | Bacterial Biotransformation [12]: Compound NOT metabolized | Bacterial Biotransformation [13]: Compound NOT metabolized | Bacterial Biotransformation [14]: Compound NOT metabolized | Bacterial Biotransformation [15]: Compound NOT metabolized | Bacterial Biotransformation [16]: Compound NOT metabolized | Bacterial Biotransformation [17]: Compound NOT metabolized | Bacterial Biotransformation [19]: Compound NOT metabolized

CCN(CC)CC#CCOC(=O)C(O)(c1ccccc1)C1CCCCC1.Cl (stereo not drawn) [OXYBUTYNIN CHLORIDE]
Bacterial Biotransformation [1]: Compound NOT metabolized | Bacterial Biotransformation [2]: Compound NOT metabolized | Bacterial Biotransformation [3]: Compound NOT metabolized | Bacterial Biotransformation [4]: Compound NOT metabolized | Bacterial Biotransformation [5]: Compound metabolized | Bacterial Biotransformation [6]: Compound metabolized | Bacterial Biotransformation [7]: Compound NOT metabolized | Bacterial Biotransformation [20]: Compound NOT metabolized | Bacterial Biotransformation [8]: Compound NOT metabolized | Bacterial Biotransformation [9]: Compound NOT metabolized | Bacterial Biotransformation [10]: Compound NOT metabolized | Bacterial Biotransformation [11]: Compound NOT metabolized | Bacterial Biotransformation [12]: Compound NOT metabolized | Bacterial Biotransformation [14]: Compound NOT metabolized | Bacterial Biotransformation [15]: Compound NOT metabolized | Bacterial Biotransformation [16]: Compound metabolized | Bacterial Biotransformation [17]: Compound NOT metabolized

Cc1ccnc2c1NC(=O)c1cccnc1N2C1CC1 [NEVIRAPINE]
Bacterial Biotransformation [1]: Compound NOT metabolized | Bacterial Biotransformation [2]: Compound NOT metabolized | Bacterial Biotransformation [3]: Compound NOT metabolized | Bacterial Biotransformation [4]: Compound NOT metabolized | Bacterial Biotransformation [5]: Compound NOT metabolized | Bacterial Biotransformation [6]: Compound NOT metabolized | Bacterial Biotransformation [7]: Compound NOT metabolized | Bacterial Biotransformation [20]: Compound NOT metabolized | Bacterial Biotransformation [8]: Compound NOT metabolized | Bacterial Biotransformation [9]: Compound NOT metabolized | Bacterial Biotransformation [10]: Compound NOT metabolized | Bacterial Biotransformation [11]: Compound NOT metabolized | Bacterial Biotransformation [12]: Compound NOT metabolized | Bacterial Biotransformation [13]: Compound NOT metabolized | Bacterial Biotransformation [14]: Compound NOT metabolized | Bacterial Biotransformation [15]: Compound NOT metabolized | Bacterial Biotransformation [16]: Compound NOT metabolized | Bacterial Biotransformation [17]: Compound NOT metabolized | Bacterial Biotransformation [19]: Compound NOT metabolized

CN1CCN(C2=Nc3ccccc3Oc3ccc(Cl)cc32)CC1.O=C(O)CCC(=O)O [LOXAPINE SUCCINATE]
Bacterial Biotransformation [1]: Compound NOT metabolized | Bacterial Biotransformation [3]: Compound NOT metabolized | Bacterial Biotransformation [4]: Compound NOT metabolized | Bacterial Biotransformation [6]: Compound NOT metabolized | Bacterial Biotransformation [7]: Compound NOT metabolized | Bacterial Biotransformation [20]: Compound NOT metabolized | Bacterial Biotransformation [18]: Compound NOT metabolized | Bacterial Biotransformation [9]: Compound NOT metabolized | Bacterial Biotransformation [10]: Compound NOT metabolized | Bacterial Biotransformation [11]: Compound NOT metabolized | Bacterial Biotransformation [12]: Compound NOT metabolized | Bacterial Biotransformation [13]: Compound NOT metabolized | Bacterial Biotransformation [14]: Compound NOT metabolized | Bacterial Biotransformation [15]: Compound NOT metabolized | Bacterial Biotransformation [16]: Compound NOT metabolized | Bacterial Biotransformation [17]: Compound NOT metabolized | Bacterial Biotransformation [19]: Compound NOT metabolized

Cc1cc2c(cc1S(N)(=O)=O)S(=O)(=O)CCC2
Bacterial Biotransformation [1]: Compound NOT metabolized | Bacterial Biotransformation [2]: Compound NOT metabolized | Bacterial Biotransformation [3]: Compound NOT metabolized | Bacterial Biotransformation [4]: Compound NOT metabolized | Bacterial Biotransformation [5]: Compound NOT metabolized | Bacterial Biotransformation [6]: Compound NOT metabolized | Bacterial Biotransformation [7]: Compound NOT metabolized | Bacterial Biotransformation [20]: Compound NOT metabolized | Bacterial Biotransformation [8]: Compound NOT metabolized | Bacterial Biotransformation [18]: Compound NOT metabolized | Bacterial Biotransformation [9]: Compound NOT metabolized | Bacterial Biotransformation [11]: Compound NOT metabolized | Bacterial Biotransformation [12]: Compound NOT metabolized | Bacterial Biotransformation [13]: Compound NOT metabolized | Bacterial Biotransformation [14]: Compound NOT metabolized | Bacterial Biotransformation [15]: Compound NOT metabolized | Bacterial Biotransformation [17]: Compound NOT metabolized | Bacterial Biotransformation [19]: Compound NOT metabolized

CC(=O)OCC(CCn1cnc2cnc(N)nc21)COC(C)=O [FAMCICLOVIR]
Bacterial Biotransformation [1]: Compound NOT metabolized | Bacterial Biotransformation [2]: Compound NOT metabolized | Bacterial Biotransformation [3]: Compound metabolized | Bacterial Biotransformation [4]: Compound metabolized | Bacterial Biotransformation [5]: Compound NOT metabolized | Bacterial Biotransformation [6]: Compound metabolized | Bacterial Biotransformation [7]: Compound NOT metabolized | Bacterial Biotransformation [8]: Compound NOT metabolized | Bacterial Biotransformation [18]: Compound metabolized | Bacterial Biotransformation [9]: Compound NOT metabolized | Bacterial Biotransformation [10]: Compound NOT metabolized | Bacterial Biotransformation [11]: Compound NOT metabolized | Bacterial Biotransformation [12]: Compound metabolized | Bacterial Biotransformation [13]: Compound metabolized | Bacterial Biotransformation [14]: Compound metabolized | Bacterial Biotransformation [15]: Compound NOT metabolized | Bacterial Biotransformation [17]: Compound NOT metabolized | Bacterial Biotransformation [19]: Compound metabolized

N#Cc1ccc(C(c2ccc(C#N)cc2)n2cncn2)cc1 [LETROZOLE]
Bacterial Biotransformation [1]: Compound NOT metabolized | Bacterial Biotransformation [2]: Compound NOT metabolized | Bacterial Biotransformation [3]: Compound NOT metabolized | Bacterial Biotransformation [4]: Compound NOT metabolized | Bacterial Biotransformation [5]: Compound NOT metabolized | Bacterial Biotransformation [6]: Compound NOT metabolized | Bacterial Biotransformation [7]: Compound NOT metabolized | Bacterial Biotransformation [20]: Compound NOT metabolized | Bacterial Biotransformation [8]: Compound NOT metabolized | Bacterial Biotransformation [18]: Compound NOT metabolized | Bacterial Biotransformation [9]: Compound NOT metabolized | Bacterial Biotransformation [10]: Compound NOT metabolized | Bacterial Biotransformation [11]: Compound NOT metabolized | Bacterial Biotransformation [12]: Compound NOT metabolized | Bacterial Biotransformation [13]: Compound NOT metabolized | Bacterial Biotransformation [14]: Compound NOT metabolized | Bacterial Biotransformation [15]: Compound NOT metabolized | Bacterial Biotransformation [16]: Compound NOT metabolized | Bacterial Biotransformation [17]: Compound NOT metabolized
